Measured values from publication PMC314469, “Protein Interaction Networks by Proteome Peptide Scanning” (PLoS Biology, 2004).

Test system: Myo5 SH3 domain
Assay: SPOT analysis of cellulose-bound peptides (WISE), Myo5 SH3 domain (Dataset S4)
Format: binding, Saccharomyces cerevisiae
Conditions: for The normalized value in BLU units: Myo5 SH3 domain
[1] = SPOT analysis of cellulose-bound peptides probed with Myo5 SH3 domain, normalized value
[2] = SPOT analysis of membrane-synthesized peptides probed with Myo5 SH3 domain, normalized value
[3] = SPOT analysis of membrane-bound peptides, normalized value (see methods)
[4] = SPOT analysis of cellulose-bound 14-mer yeast proteome peptides, normalized value, mean where the peptide was synthesized more than once

SFRKLASPSNPNFF
The normalized value in BLU units (SPOT analysis, Myo5 SH3) [1]: 208.8 BLU

SFTPFNRPSDPSNG
The normalized value in BLU units (SPOT analysis, Myo5 SH3) [1]: 208.5 BLU

SFTRMPLPTPPIEG
The normalized value in BLU units (SPOT analysis, Myo5 SH3) [1]: 287.1 BLU

SFVGFPKPLLPRNH
The normalized value in BLU units (SPOT analysis, Myo5 SH3) [1]: 205.1 BLU

SFVHLTEPSQPLSD
The normalized value in BLU units (SPOT analysis, Myo5 SH3) [1]: 99.7 BLU

SFVTKYLPAAPVGS
The normalized value in BLU units (SPOT analysis, Myo5 SH3) [2]: 214.9 BLU

SGSGRRYPQTPSYY
The normalized value in BLU units [3]: 435.6 BLU

SIIPRIFPSTPGTI
The normalized value in BLU units (SPOT analysis, Myo5 SH3) [2]: 368.8 BLU

SILNRCVPKRPTID
The normalized value in BLU units (SPOT analysis, Myo5 SH3) [2]: 132.7 BLU

SILRKSSPEEPFMS
The normalized value in BLU units (SPOT analysis, Myo5 SH3) [2]: 144.2 BLU

SKDKKTKPTPPPKP
The normalized value in BLU units [3]: 179.5 BLU

SKIKRSRPPPPPMD
The normalized value in BLU units [3]: 5408.9 BLU

SKIPKSIPIIPYVL
The normalized value in BLU units (SPOT analysis, Myo5 SH3) [2]: 243.1 BLU

SKNWKLPPRLPHRA
The normalized value in BLU units [3]: 5572.0 BLU

SKRMKALPKGPAAL
The normalized value in BLU units [4]: 821.6 BLU

SKVNKVAPDHPFIQ
The normalized value in BLU units [4]: 72.1 BLU

SKYAKLDPSTPVSL
The normalized value in BLU units [4]: 457.3 BLU

SLAVYNIPLFPDDP
The normalized value in BLU units (SPOT analysis, Myo5 SH3) [1]: 91.7 BLU

SLCALVGPVIPHTI
The normalized value in BLU units [4]: 28.4 BLU

SLDNFYNPLGPEDR
The normalized value in BLU units (SPOT analysis, Myo5 SH3) [1]: 142.7 BLU

SLFPLKTPISPGTS
The normalized value in BLU units (SPOT analysis, Myo5 SH3) [1]: 239.2 BLU

SLGERFMPMAPEVY
The normalized value in BLU units (SPOT analysis, Myo5 SH3) [2]: 139.8 BLU

SLIPKIEPAEPTYS
The normalized value in BLU units [3]: 85.4 BLU

SLISKRNPCYPYGI
The normalized value in BLU units [4]: 483.2 BLU

SLISMETPEQPHQQ
The normalized value in BLU units (SPOT analysis, Myo5 SH3) [1]: 146.8 BLU

SLKNRDGPITPSTI
The normalized value in BLU units [4]: 215.1 BLU

SLLAKYQPSLPLVE
The normalized value in BLU units [3]: 162.4 BLU

SLLIHSLPRKPLLM
The normalized value in BLU units (SPOT analysis, Myo5 SH3) [1]: 314.4 BLU

SLQQFYNPESPIQP
The normalized value in BLU units [4]: 131.1 BLU

SLTLKTLPRVPTDS
The normalized value in BLU units (SPOT analysis, Myo5 SH3) [2]: 211.7 BLU

SLVKFSCPMTPLLE
The normalized value in BLU units [4]: 248.6 BLU

SMAMRPIPPLPTES
The normalized value in BLU units [3]: 1326.7 BLU

SMDSKRKPSPPSQR
The normalized value in BLU units (SPOT analysis, Myo5 SH3) [2]: 509.7 BLU

SNFKKRDPGLPDFQ
The normalized value in BLU units (SPOT analysis, Myo5 SH3) [2]: 160.6 BLU

SPFSLFIPTIPATT
The normalized value in BLU units (SPOT analysis, Myo5 SH3) [1]: 151.7 BLU

SPFTFLFPFLPTII
The normalized value in BLU units (SPOT analysis, Myo5 SH3) [1]: 366.0 BLU

SPKFLNSPDLPERT
The normalized value in BLU units [4]: 182.8 BLU

SPKKHVSPSRPPSV
The normalized value in BLU units (SPOT analysis, Myo5 SH3) [1]: 1427.8 BLU

SPKKLASPRTPNAN
The normalized value in BLU units (SPOT analysis, Myo5 SH3) [1]: 276.2 BLU

SPKPFSKPQEPVKA
The normalized value in BLU units (SPOT analysis, Myo5 SH3) [1]: 359.1 BLU

SPLSWSGPLTPPTF
The normalized value in BLU units [4]: 168.0 BLU

SPNDHSDPSCPCNR
The normalized value in BLU units [4]: 76.1 BLU

SPRCLPTPILPSMS
The normalized value in BLU units (SPOT analysis, Myo5 SH3) [1]: 192.8 BLU

SPRHYNVPSSPIAP
The normalized value in BLU units (SPOT analysis, Myo5 SH3) [1]: 232.7 BLU

SPSDFNKPDLPELI
The normalized value in BLU units (SPOT analysis, Myo5 SH3) [1]: 316.9 BLU

SPSQYQYPSQPALS
The normalized value in BLU units [4]: 65.2 BLU

SPSTHAAPVTPIIS
The normalized value in BLU units (SPOT analysis, Myo5 SH3) [1]: 53.3 BLU

SPSTMDFPKLPSFQ
The normalized value in BLU units (SPOT analysis, Myo5 SH3) [1]: 466.9 BLU

SPVNLLKPFNPTLP
The normalized value in BLU units (SPOT analysis, Myo5 SH3) [1]: 122.9 BLU

SPVPLGSPRGPLPV
The normalized value in BLU units [4]: 135.1 BLU

SQKKKALPKQPKAS
The normalized value in BLU units [3]: 492.9 BLU

SRSKRSKPLPPQLL
The normalized value in BLU units [4]: 884.3 BLU

SRVTRKRPREPKST
The normalized value in BLU units [4]: 829.0 BLU

SRYLKDHPNLPTPE
The normalized value in BLU units (SPOT analysis, Myo5 SH3) [2]: 69.2 BLU

SSKIRPTPRKPSRM
The normalized value in BLU units (SPOT analysis, Myo5 SH3) [2]: 673.3 BLU

SSVSKLKPSLPNKL
The normalized value in BLU units (SPOT analysis, Myo5 SH3) [2]: 418.3 BLU

STDHRGTPANPGRV
The normalized value in BLU units (SPOT analysis, Myo5 SH3) [2]: 257.1 BLU

STNAKKDPFPPPKD
The normalized value in BLU units (SPOT analysis, Myo5 SH3) [2]: 198.5 BLU

SVDPKNYPDAPLEG
The normalized value in BLU units [4]: 91.1 BLU

SVNIKCWPLKPSNF
The normalized value in BLU units [4]: 56.5 BLU

SVSEKTNPSSPSVS
The normalized value in BLU units (SPOT analysis, Myo5 SH3) [2]: 126.7 BLU

SWAVLPVPGGPVMY
The normalized value in BLU units [4]: 69.2 BLU

SWLTMLPPMAPLLS
The normalized value in BLU units (SPOT analysis, Myo5 SH3) [1]: 504.9 BLU

SWRSLTKPKIPLYK
The normalized value in BLU units [4]: 356.9 BLU

SYISRKYPRAPAFI
The normalized value in BLU units (SPOT analysis, Myo5 SH3) [2]: 740.2 BLU

SYMDKIYPDLPNDK
The normalized value in BLU units [3]: 83.0 BLU

TAAELQAPPPPPSS
The normalized value in BLU units (SPOT analysis, Myo5 SH3) [1]: 315.2 BLU

TAPIHSTPKPPPND
The normalized value in BLU units [4]: 77.7 BLU

TARNKKSPGGPRQR
The normalized value in BLU units (SPOT analysis, Myo5 SH3) [2]: 593.2 BLU

TASGKTSPILPLQN
The normalized value in BLU units [3]: 290.5 BLU

TASQLQNPPPPPST
The normalized value in BLU units [4]: 168.2 BLU
